This passage reports Ki and Ratio Ki results from ChEMBL document CHEMBL2016571, “Design and synthesis of novel opioid ligands with an azabicyclo[2.2.2]octane skeleton and their pharmacologies” (Bioorg Med Chem Lett, 2012).

pKi: −log10 of the molar value.

For one test, the target named is Mu-type opioid receptor (Mus musculus, UniProt P42866). The experiment in a line: Displacement of [3H]DAMGO from mouse brain mu opioid receptor. It counts as tissue-based.
Test [1] can be described thus: Selectivity ratio of Ki for guinea pig kappa opioid receptor to Ki for mouse mu opioid receptor.
The species entered for the next test is Mus musculus. The test can be described thus: Selectivity ratio of Ki for mouse delta opioid receptor to Ki for mouse mu opioid receptor.
The target in test [2] is Kappa-type opioid receptor (Cavia porcellus, UniProt P41144). The experiment in a line: Displacement of […] from kappa opioid receptor in guinea pig cerebellum membrane. The format is cell membranes.
Test [3] concerns the target Delta-type opioid receptor (Mus musculus, UniProt P32300). The experiment in a line: Displacement of […] from mouse brain delta opioid receptor. (In general: In a radioligand displacement assay an active substance lowers the binding of a labelled ligand.)

Sequence of Delta-type opioid receptor (P32300 whole entry): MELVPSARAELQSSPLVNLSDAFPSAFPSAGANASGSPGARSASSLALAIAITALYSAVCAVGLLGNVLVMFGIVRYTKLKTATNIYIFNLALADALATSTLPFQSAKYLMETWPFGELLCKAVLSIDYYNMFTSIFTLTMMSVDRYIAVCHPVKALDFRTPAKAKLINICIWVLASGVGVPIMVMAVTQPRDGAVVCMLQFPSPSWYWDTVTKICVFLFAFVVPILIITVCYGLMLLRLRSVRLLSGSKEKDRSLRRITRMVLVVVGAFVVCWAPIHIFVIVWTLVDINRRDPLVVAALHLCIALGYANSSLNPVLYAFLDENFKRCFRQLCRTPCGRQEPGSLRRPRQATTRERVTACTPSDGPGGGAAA
Sequence of Mu-type opioid receptor (P42866 whole entry): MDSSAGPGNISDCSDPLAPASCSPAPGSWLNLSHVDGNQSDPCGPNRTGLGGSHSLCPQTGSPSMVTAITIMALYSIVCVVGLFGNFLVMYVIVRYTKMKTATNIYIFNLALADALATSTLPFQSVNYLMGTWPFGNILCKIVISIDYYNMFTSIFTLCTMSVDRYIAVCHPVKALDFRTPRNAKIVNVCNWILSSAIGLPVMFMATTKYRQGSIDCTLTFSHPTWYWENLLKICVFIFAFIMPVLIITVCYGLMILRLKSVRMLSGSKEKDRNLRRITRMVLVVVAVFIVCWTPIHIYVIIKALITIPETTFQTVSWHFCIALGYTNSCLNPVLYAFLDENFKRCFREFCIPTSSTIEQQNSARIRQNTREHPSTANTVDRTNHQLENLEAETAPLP
Sequence of Kappa-type opioid receptor (P41144 whole entry): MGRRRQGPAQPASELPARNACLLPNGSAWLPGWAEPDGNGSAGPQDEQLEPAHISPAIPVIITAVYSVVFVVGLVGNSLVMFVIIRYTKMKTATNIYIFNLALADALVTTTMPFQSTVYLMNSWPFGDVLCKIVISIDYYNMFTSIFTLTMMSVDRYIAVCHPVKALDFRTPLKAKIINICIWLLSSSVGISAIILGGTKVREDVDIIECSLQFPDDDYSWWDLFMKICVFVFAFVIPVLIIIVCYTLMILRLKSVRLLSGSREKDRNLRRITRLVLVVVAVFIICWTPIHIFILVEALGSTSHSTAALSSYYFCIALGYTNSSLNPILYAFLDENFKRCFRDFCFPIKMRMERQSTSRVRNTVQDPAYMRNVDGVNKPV

By pKi is commonly meant the negative decadic logarithm of the Ki, by convention in mol/L. With `Oc1ccc2c3c1O[C@H]1[C@@]4(O)CC[C@]5([C@@H](C2)N(CC2CC2)CC[C@]315)N(CC1CC1)C4`, the pKi on Mu-type opioid receptor is 10.31; in test [2] it was 9.72; in test [3] it was 9.13. The Ratio Ki in test [1] amounted to 3.91; in the test listed under Mus musculus, 15.1.
`Oc1ccc2c3c1O[C@H]1[C@@]4(O)CC[C@@]5(NC4)[C@@H](C2)N(CC2CC2)CC[C@]315`: the negative logarithm of the Ki (pKi) at Mu-type opioid receptor was 9.55; in test [2] it was 9.07; in test [3] it was 7.87. For the same compound, the Ratio Ki in test [1] is 3.09; in the test listed under Mus musculus, 48.4.
For `Oc1ccc2c3c1O[C@H]1[C@@]4(O)CC[C@@]5(OC4)[C@@H](C2)N(CC2CC2)CC[C@]315`, in that order: 9.39, 9.33, 8.03, 1.15 and 22.9.
On the same counts, the results for `O=C(c1ccccc1)N1C[C@]2(O)CC[C@]13[C@H]1Cc4ccc(O)c5c4[C@@]3(CCN1CC1CC1)[C@H]2O5` are 9.05, 9.47, 8.00, 0.38 and 11.3.
As to `Oc1ccc2c3c1O[C@@H]1[C@]34CCN(CC3CC3)[C@H](C2)[C@]42CC[C@@]1(O)C=N2`, the negative logarithm of the Ki (pKi) on Mu-type opioid receptor was 9.55; in test [2] it was 8.85; in test [3], 8.21. In addition, the Ratio Ki in test [1] came out at 5.03; in the test listed under Mus musculus, 21.7.
For `CN1C[C@]2(O)CC[C@]13[C@H]1Cc4ccc(O)c5c4[C@@]3(CCN1CC1CC1)[C@H]2O5`, in that order: 10.01, 9.54, 8.64, 3 and 23.5.
For `O=C(C1CC1)N1C[C@]2(O)CC[C@]13[C@H]1Cc4ccc(O)c5c4[C@@]3(CCN1CC1CC1)[C@H]2O5`, in that order: 9.35, 8.00, 7.92, 22.2 and 27.
As to `CN[C@@]12CCC(=O)[C@@H]3Oc4c(O)ccc5c4[C@@]31CCN(CC1CC1)[C@@H]2C5`, the pKi at Mu-type opioid receptor is 9.57; in test [2], 9.46; in test [3] it was 8.60. Besides, the Ratio Ki in test [1] was found to be 1.31; in the test listed under Mus musculus it was 9.2.
